Assay results taken from patent publication US8940909B2, “Indicator platform” (Biosynth AG, priority 2009, dated 2015).

Key:
Assay in all cases: IO staining of colonies of beta-D-galactosidase positive/negative bacteria (Table IVb)
Format in all cases: cell-based
[1] = test system: Aeromonas hydrophila 292; details: Aeromonas hydrophila strain 292, b-gal +; 24 h on Nutrient Agar, 150 mg/l indicator, 100 mg/l IPTG; as to G: Growth of colonies: key: −: absent; +/−: weak; +: strong; ++: very strong
[2] = test system: Citrobacter freundii 181; details: Citrobacter freundii strain 181, b-gal +; 24 h on Nutrient Agar, 150 mg/l indicator, 100 mg/l IPTG; as to C: Color of colonies: key: −: absent; +/−: weak; +: strong; ++: very strong; as to G: Growth of colonies: key: −: absent; +/−: weak; +: strong; ++: very strong
[3] = test system: Enterobacter aerogenes 242; details: Enterobacter aerogenes strain 242, b-gal +; 24 h on Nutrient Agar, 150 mg/l indicator, 100 mg/l IPTG; as to C: Color of colonies: key: −: absent; +/−: weak; +: strong; ++: very strong; as to G: Growth of colonies: key: −: absent; +/−: weak; +: strong; ++: very strong
[4] = test system: Enterobacter cloacae 245; details: Enterobacter cloacae strain 245, b-gal +; 24 h on Nutrient Agar, 150 mg/l indicator, 100 mg/l IPTG; as to C: Color of colonies: key: −: absent; +/−: weak; +: strong; ++: very strong; as to G: Growth of colonies: key: −: absent; +/−: weak; +: strong; ++: very strong
[5] = test system: Escherichia coli (O157:H7) 60; details: Escherichia coli (O157:H7) strain 60, b-gal +; 24 h on Nutrient Agar, 150 mg/l indicator, 100 mg/l IPTG
[6] = test system: Escherichia coli 61; details: Escherichia coli strain 61, b-gal +; 24 h on Nutrient Agar, 150 mg/l indicator, 100 mg/l IPTG; as to C: Color of colonies: key: −: absent; +/−: weak; +: strong; ++: very strong; as to G: Growth of colonies: key: −: absent; +/−: weak; +: strong; ++: very strong
[7] = test system: Escherichia coli 270; details: Escherichia coli strain 270, b-gal +; 24 h on Nutrient Agar, 150 mg/l indicator, 100 mg/l IPTG; as to C: Color of colonies: key: −: absent; +/−: weak; +: strong; ++: very strong; as to G: Growth of colonies: key: −: absent; +/−: weak; +: strong; ++: very strong
[8] = test system: Klebsiella pneumoniae 164; details: Klebsiella pneumoniae strain 164, b-gal +; 24 h on Nutrient Agar, 150 mg/l indicator, 100 mg/l IPTG; as to C: Color of colonies: key: −: absent; +/−: weak; +: strong; ++: very strong; as to G: Growth of colonies: key: −: absent; +/−: weak; +: strong; ++: very strong
[9] = test system: Serratia marcescens 40; details: Serratia marcescens strain 40, b-gal +; 24 h on Nutrient Agar, 150 mg/l indicator, 100 mg/l IPTG; as to G: Growth of colonies: key: −: absent; +/−: weak; +: strong; ++: very strong
[10] = test system: Staphylococcus intermedius 31; details: Staphylococcus intermedius strain 31, b-gal +; 24 h on Nutrient Agar, 150 mg/l indicator, 100 mg/l IPTG
[11] = test system: Staphylococcus saprophyticus 273; details: Staphylococcus saprophyticus strain 273, b-gal +; 24 h on Nutrient Agar, 150 mg/l indicator, 100 mg/l IPTG; as to G: Growth of colonies: key: −: absent; +/−: weak; +: strong; ++: very strong
[12] = test system: Salmonella bongori 81; details: Salmonella bongori strain 81, b-gal +; 24 h on Nutrient Agar, 150 mg/l indicator, 100 mg/l IPTG; as to C: Color of colonies: key: −: absent; +/−: weak/variable; +: strong; as to G: Growth of colonies: key: −: absent; +/−: weak; +: strong; ++: very strong
[13] = test system: Salmonella illa 73; details: Salmonella illa strain 73, b-gal +; 24 h on Nutrient Agar, 150 mg/l indicator, 100 mg/l IPTG; also: key: −: absent; +/−: weak; +: strong; ++: very strong
[14] = test system: Shigella dysenteriae Serovar 1 131; details: Shigella dysenteriae Serovar 1 strain 131, b-gal +/−; 24 h on Nutrient Agar, 150 mg/l indicator, 100 mg/l IPTG
[15] = test system: Shigella sonnei 133; details: Shigella sonnei strain 133, b-gal +/−; 24 h on Nutrient Agar, 150 mg/l indicator, 100 mg/l IPTG; as to C: Color of colonies: key: −: absent; +/−: weak; +: strong; ++: very strong; as to G: Growth of colonies: key: −: absent; +/−: weak; +: strong; ++: very strong
[16] = test system: Yersinia enterocolitica 175; details: Yersinia enterocolitica strain 175, b-gal +/−; 24 h on Nutrient Agar, 150 mg/l indicator, 100 mg/l IPTG; as to G: Growth of colonies: key: −: absent; +/−: weak; +: strong; ++: very strong
[17] = test system: Salmonella enteritidis 43; details: Salmonella enteritidis strain 43, b-gal −; 24 h on Nutrient Agar, 150 mg/l indicator, 100 mg/l IPTG; also: key: −: absent; +/−: weak; +: strong; ++: very strong
[18] = test system: Bacillus subtilis 65; details: Bacillus subtilis strain 65, b-gal −; 24 h on Nutrient Agar, 150 mg/l indicator, 100 mg/l IPTG; as to C: Color of colonies: key: −: absent; +/−: weak; +: strong; ++: very strong; as to F: Fluorescence of colonies: key: −: absent; +/−: weak; +: strong; ++: very strong
[19] = test system: Listeria monocytogenes (4b) 290; details: Listeria monocytogenes (4b) strain 290, b-gal −; 24 h on Nutrient Agar, 150 mg/l indicator, 100 mg/l IPTG; as to C: Color of colonies: key: −: absent; +/−: weak; +: strong; ++: very strong; as to F: Fluorescence of colonies: key: −: absent; +/−: weak; +: strong; ++: very strong
[20] = test system: Pseudomonas aeruginosa 168; details: Pseudomonas aeruginosa strain 168, b-gal −, 24 h on Nutrient Agar, 150 mg/l indicator, 100 mg/l IPTG; for F: Fluorescence of colonies: footnote 1: blue autofluorescence; as to C: Color of colonies: key: −: absent; +/−: weak; +: strong; ++: very strong; as to G: Growth of colonies: key: −: absent; +/−: weak; +: strong; ++: very strong
[21] = test system: Shigella boydii 135; details: Shigella boydii strain 135, b-gal −; 24 h on Nutrient Agar, 150 mg/l indicator, 100 mg/l IPTG; also: key: −: absent; +/−: weak; +: strong; ++: very strong
[22] = test system: Staphylococcus aureus 2; details: Staphylococcus aureus strain 2, b-gal −, 24 h on Nutrient Agar, 150 mg/l indicator, 100 mg/l IPTG; for C: Color of colonies: footnote 2: S. aureus natural color; as to F: Fluorescence of colonies: key: −: absent; +/−: weak; +: strong; ++: very strong
[23] = test system: Streptococcus agalactiae 195; details: Streptococcus agalactiae strain 195, b-gal −; 24 h on Nutrient Agar, 150 mg/l indicator, 100 mg/l IPTG; as to C: Color of colonies: key: −: absent; +/−: weak; +: strong; ++: very strong; as to F: Fluorescence of colonies: key: −: absent; +/−: weak; +: strong; ++: very strong

CC(=O)c1ccccc1-n1cc(O[C@@H]2O[C@H](CO)[C@H](O)[C@H](O)[C@H]2O)c2ccc(Cl)cc21 [Indicator I16a, 1-(2-Acetylphenyl)-6-chloro-1H-indol-3-yl-beta-D-galactopyranoside]
+/−: C: Color of colonies [10] | F: Fluorescence of colonies [10] | G: Growth of colonies [10] | C: Color of colonies [12] | F: Fluorescence of colonies [12] | G: Growth of colonies [19] | G: Growth of colonies [22] | G: Growth of colonies [23]
+^1: F: Fluorescence of colonies [20]
+: C: Color of colonies [1] | F: Fluorescence of colonies [1] | G: Growth of colonies [1] | C: Color of colonies [2] | F: Fluorescence of colonies [2] | G: Growth of colonies [2] | C: Color of colonies [3] | F: Fluorescence of colonies [3] | G: Growth of colonies [3] | C: Color of colonies [4] | F: Fluorescence of colonies [4] | G: Growth of colonies [4] | C: Color of colonies [5] | F: Fluorescence of colonies [5] | G: Growth of colonies [5] | C: Color of colonies [6] | F: Fluorescence of colonies [6] | G: Growth of colonies [6] | C: Color of colonies [7] | F: Fluorescence of colonies [7] | G: Growth of colonies [7] | C: Color of colonies [8] | F: Fluorescence of colonies [8] | G: Growth of colonies [8] | C: Color of colonies [9] | F: Fluorescence of colonies [9] | G: Growth of colonies [9] | C: Color of colonies [11] | F: Fluorescence of colonies [11] | G: Growth of colonies [11] | G: Growth of colonies [12] | G: Growth of colonies [13] | G: Growth of colonies [14] | C: Color of colonies [15] | F: Fluorescence of colonies [15] | G: Growth of colonies [15] | G: Growth of colonies [16] | G: Growth of colonies [17] | G: Growth of colonies [18] | G: Growth of colonies [20] | G: Growth of colonies [21]
−: C: Color of colonies [13] | F: Fluorescence of colonies [13] | C: Color of colonies [14] | F: Fluorescence of colonies [14] | C: Color of colonies [16] | F: Fluorescence of colonies [16] | C: Color of colonies [17] | F: Fluorescence of colonies [17] | C: Color of colonies [18] | F: Fluorescence of colonies [18] | C: Color of colonies [19] | F: Fluorescence of colonies [19] | C: Color of colonies [20] | C: Color of colonies [21] | F: Fluorescence of colonies [21] | F: Fluorescence of colonies [22] | C: Color of colonies [22] | C: Color of colonies [23] | F: Fluorescence of colonies [23]

COc1ccc(C(=O)c2ccccc2-n2cc(O[C@@H]3O[C@H](CO)[C@H](O)[C@H](O)[C@H]3O)c3ccccc32)c(OC)c1 [Indicator I25a, 1-[2-(2,4-Dimethoxybenzoyl)phenyl]-1H-indol-3-yl-beta-D-galactopyranoside]
+^1: F: Fluorescence of colonies [20]
++: F: Fluorescence of colonies [4] | C: Color of colonies [5] | F: Fluorescence of colonies [5] | C: Color of colonies [6] | F: Fluorescence of colonies [6] | C: Color of colonies [7] | F: Fluorescence of colonies [7] | F: Fluorescence of colonies [15]
+/−: F: Fluorescence of colonies [1] | F: Fluorescence of colonies [9] | C: Color of colonies [10] | F: Fluorescence of colonies [10] | C: Color of colonies [11] | F: Fluorescence of colonies [11] | C: Color of colonies [12] | F: Fluorescence of colonies [12] | G: Growth of colonies [19] | G: Growth of colonies [23]
+/−^2: C: Color of colonies [22]
+: C: Color of colonies [1] | G: Growth of colonies [1] | C: Color of colonies [2] | F: Fluorescence of colonies [2] | G: Growth of colonies [2] | C: Color of colonies [3] | F: Fluorescence of colonies [3] | G: Growth of colonies [3] | C: Color of colonies [4] | G: Growth of colonies [4] | G: Growth of colonies [5] | G: Growth of colonies [6] | G: Growth of colonies [7] | C: Color of colonies [8] | F: Fluorescence of colonies [8] | G: Growth of colonies [8] | C: Color of colonies [9] | G: Growth of colonies [9] | G: Growth of colonies [10] | G: Growth of colonies [11] | G: Growth of colonies [12] | G: Growth of colonies [13] | G: Growth of colonies [14] | C: Color of colonies [15] | G: Growth of colonies [15] | G: Growth of colonies [16] | G: Growth of colonies [17] | G: Growth of colonies [18] | G: Growth of colonies [20] | G: Growth of colonies [21] | G: Growth of colonies [22]
−: C: Color of colonies [13] | F: Fluorescence of colonies [13] | C: Color of colonies [14] | F: Fluorescence of colonies [14] | C: Color of colonies [16] | F: Fluorescence of colonies [16] | C: Color of colonies [17] | F: Fluorescence of colonies [17] | C: Color of colonies [18] | F: Fluorescence of colonies [18] | C: Color of colonies [19] | F: Fluorescence of colonies [19] | C: Color of colonies [20] | C: Color of colonies [21] | F: Fluorescence of colonies [21] | F: Fluorescence of colonies [22] | C: Color of colonies [23] | F: Fluorescence of colonies [23]
